Measured values as given in patent publication US20150329558A1, “FUSED HETEROCYCLIC COMPOUNDS AS ION CHANNEL MODULATORS” (Gilead Sciences, Inc., priority 2011, published 2015).
Like-named read-outs stand apart in the source and are kept apart here.

Legend:
[1] = Microsomal stability assay, dog; format: in vitro ADME; settings: metabolic stability, dog liver microsomes 0.5 mg/mL, substrate 3 uM
In short: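 Liver microsomes at 0.5 mg/mL protein in 100 mM KPO4 buffer, incubated with 3 uM compound and NADPH-regenerating system, run in duplicate. Samples taken at 2, 12, 25, 45 and 65 min and quenched in MeOH/ACN/water before analysis.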

[2] = biological target: wild-type human cardiac sodium channel, hNav1.5 (late INa) (Homo sapiens, UniProt Q14524); assay: Late INa screening assay (QPatch whole cell patch clamp); format: cell-based
Sequence of wild-type human cardiac sodium channel, hNav1.5 (late INa) (Q14524 whole entry): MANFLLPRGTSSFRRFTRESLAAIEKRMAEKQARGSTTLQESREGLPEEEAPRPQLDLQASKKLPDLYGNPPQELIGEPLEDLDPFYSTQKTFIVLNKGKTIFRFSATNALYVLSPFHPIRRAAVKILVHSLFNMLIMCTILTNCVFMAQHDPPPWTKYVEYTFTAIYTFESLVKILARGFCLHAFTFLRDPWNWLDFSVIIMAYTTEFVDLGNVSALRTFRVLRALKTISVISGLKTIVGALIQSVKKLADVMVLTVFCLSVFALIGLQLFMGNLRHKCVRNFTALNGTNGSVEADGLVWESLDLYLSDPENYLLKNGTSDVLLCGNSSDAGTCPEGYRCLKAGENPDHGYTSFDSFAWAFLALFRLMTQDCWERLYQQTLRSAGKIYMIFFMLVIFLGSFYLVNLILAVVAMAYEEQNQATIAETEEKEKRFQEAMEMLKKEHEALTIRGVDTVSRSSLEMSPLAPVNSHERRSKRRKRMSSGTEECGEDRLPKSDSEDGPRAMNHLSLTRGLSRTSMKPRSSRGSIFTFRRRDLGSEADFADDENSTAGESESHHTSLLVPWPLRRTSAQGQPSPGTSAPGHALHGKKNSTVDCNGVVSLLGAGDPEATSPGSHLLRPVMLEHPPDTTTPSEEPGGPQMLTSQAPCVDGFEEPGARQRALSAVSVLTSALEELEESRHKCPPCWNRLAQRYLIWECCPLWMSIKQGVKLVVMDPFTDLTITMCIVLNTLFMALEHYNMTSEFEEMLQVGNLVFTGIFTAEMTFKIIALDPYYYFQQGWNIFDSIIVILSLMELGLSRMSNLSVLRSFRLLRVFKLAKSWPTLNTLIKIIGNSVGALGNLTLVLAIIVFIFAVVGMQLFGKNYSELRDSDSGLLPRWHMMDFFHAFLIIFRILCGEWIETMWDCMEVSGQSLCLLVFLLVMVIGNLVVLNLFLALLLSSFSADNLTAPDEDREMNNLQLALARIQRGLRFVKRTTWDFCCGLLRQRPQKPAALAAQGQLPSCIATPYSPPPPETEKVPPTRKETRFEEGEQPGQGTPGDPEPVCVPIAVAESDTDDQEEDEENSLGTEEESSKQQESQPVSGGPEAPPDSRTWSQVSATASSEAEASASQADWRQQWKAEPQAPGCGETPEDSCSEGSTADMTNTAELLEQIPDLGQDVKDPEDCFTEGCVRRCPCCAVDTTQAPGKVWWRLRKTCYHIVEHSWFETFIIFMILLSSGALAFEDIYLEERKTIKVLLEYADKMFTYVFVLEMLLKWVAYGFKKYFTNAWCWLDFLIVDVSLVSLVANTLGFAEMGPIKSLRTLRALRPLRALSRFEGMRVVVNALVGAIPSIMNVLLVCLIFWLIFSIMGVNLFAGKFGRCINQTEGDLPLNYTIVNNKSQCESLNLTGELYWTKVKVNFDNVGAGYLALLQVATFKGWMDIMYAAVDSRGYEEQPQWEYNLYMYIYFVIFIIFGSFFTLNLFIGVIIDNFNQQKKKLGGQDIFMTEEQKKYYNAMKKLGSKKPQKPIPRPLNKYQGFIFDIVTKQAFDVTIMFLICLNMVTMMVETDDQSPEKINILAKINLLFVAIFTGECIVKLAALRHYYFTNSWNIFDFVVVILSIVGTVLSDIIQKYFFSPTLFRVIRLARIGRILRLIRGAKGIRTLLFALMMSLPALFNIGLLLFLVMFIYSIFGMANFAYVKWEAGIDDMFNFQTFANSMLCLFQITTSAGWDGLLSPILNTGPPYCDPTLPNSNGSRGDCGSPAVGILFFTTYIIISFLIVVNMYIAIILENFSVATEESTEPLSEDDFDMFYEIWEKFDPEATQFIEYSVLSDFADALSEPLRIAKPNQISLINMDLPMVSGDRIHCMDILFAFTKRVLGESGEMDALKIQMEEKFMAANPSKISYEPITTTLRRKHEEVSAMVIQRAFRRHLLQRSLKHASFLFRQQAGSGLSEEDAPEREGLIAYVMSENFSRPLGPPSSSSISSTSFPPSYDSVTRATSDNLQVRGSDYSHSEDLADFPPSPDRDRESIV
In short: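 HEK293 cells stably expressing hNav1.5 alpha subunit without beta subunits, QPatch automated whole-cell clamp at 23-25° C, CsF-based internal solution pH 7.4. Late INa induced by 10 μM tefluthrin; 250 ms steps to −20 mV from −120 mV at 0.1 Hz, compounds at 1 μM. Percent block of mean current 225–250 ms into the step.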

hERG potassium channel = hERG potassium channel (Homo sapiens, UniProt Q12809); assay: hERG screening assay (PatchXpress, CHO cells); format: cell-based; settings: % inhibition at 1 μM
Sequence of hERG potassium channel (Q12809 whole entry): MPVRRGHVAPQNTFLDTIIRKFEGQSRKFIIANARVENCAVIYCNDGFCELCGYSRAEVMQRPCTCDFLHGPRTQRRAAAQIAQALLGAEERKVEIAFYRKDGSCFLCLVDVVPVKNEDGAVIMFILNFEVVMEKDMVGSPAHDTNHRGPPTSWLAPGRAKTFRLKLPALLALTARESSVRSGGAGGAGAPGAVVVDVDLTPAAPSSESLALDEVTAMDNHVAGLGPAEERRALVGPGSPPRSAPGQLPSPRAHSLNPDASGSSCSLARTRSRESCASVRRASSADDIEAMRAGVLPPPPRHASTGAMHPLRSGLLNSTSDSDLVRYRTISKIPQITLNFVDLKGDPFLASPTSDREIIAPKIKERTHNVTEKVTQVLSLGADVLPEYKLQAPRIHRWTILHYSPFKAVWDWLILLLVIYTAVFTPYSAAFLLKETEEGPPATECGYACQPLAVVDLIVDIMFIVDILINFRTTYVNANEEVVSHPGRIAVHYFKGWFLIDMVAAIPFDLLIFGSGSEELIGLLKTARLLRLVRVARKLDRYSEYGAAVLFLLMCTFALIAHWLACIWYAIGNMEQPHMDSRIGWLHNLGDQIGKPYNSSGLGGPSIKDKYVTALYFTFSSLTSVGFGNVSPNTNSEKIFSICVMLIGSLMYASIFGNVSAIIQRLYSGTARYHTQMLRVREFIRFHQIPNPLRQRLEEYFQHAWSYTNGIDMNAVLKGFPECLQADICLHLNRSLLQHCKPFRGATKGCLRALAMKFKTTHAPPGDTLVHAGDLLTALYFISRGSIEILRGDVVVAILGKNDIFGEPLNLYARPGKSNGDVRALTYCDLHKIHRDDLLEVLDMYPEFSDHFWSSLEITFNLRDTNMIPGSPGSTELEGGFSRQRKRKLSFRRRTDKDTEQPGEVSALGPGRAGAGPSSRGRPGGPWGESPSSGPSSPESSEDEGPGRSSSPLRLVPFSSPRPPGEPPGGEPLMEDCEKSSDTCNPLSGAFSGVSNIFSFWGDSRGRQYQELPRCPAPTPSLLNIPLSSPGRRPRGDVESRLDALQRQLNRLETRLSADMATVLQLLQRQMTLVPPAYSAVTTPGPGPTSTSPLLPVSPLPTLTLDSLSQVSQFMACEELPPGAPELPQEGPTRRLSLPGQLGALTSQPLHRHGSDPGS
Procedure: Compounds were also tested for their effect to block the hERG K^+ channel.
Compounds were screened to test their activity in blocking the hERG potassium channel at AVIVA Biosciences (San Deigo, Calif., USA). The hERG channel is heterologously expressed in a CHO (Chinese Hamster Ovary) cell line. Cells were maintained with standard tissue culture procedures and stable channel expression was maintained with 500 μg/mL G418 in the culture medium. Cells were harvested for testing on the PatchXpress 7000A automated patch clamp with Accumax (Innovative Cell Technologies, San Diego, Calif.) to isolate single cells.
The following solutions were used for electrophysiological recordings. The external solution contained: 2 mM CaCl2; 2 mM MgCl2; 4 mM KCl; 150 mM NaCl; 10 mM Glucose; 10 mM HEPES (pH 7.4 with 1M NaOH; osmolarity, ˜310 mOsm). The internal solution contained: 140 mM KCl, 10 mM MgCl2, 6 mM EGTA, 5 mM HEPES, 5 mM ATP (pH adjusted to 7.25 with KOH; osmolarity, ˜295 mOsm).
hERG channels were activated when the voltage was first stepped to −50 mV for 300 ms from the −80 mV holding potential and then stepped to +20 mV for 5 seconds. At +20 mV the channels open and then largely inactivate, so the currents are relatively small. Upon returning to −50 mV from +20 mV, hERG currents transiently become much larger as inactivation is rapidly removed and then the channel closes. The first step to −50 mV for 300 ms was used as a baseline for measuring the peak amplitude during the step to −50 mV after channel activation. The peak tail current at −50 mV was measured both under control conditions and after addition of compound, each cell serving as its own control.
All compounds were prepared as 10 mM DMSO stocks in glass vials. Stock solutions were mixed by vigorous vortexing and sonication for about 2 minutes at room temperature. For testing, compounds were diluted in glass vials using an intermediate dilution step in pure DMSO and then further diluted to working concentrations in external solution. Dilutions were prepared no longer than 20 minutes before use.
For the electrophysiological recordings, after achieving the whole-cell configuration, cells were monitored for 90 seconds to assess stability and washed with external solution for 66 seconds. The voltage protocol described above was then applied to the cells every 12 seconds and throughout the whole procedure. Only cells with stable recording parameters and meeting specified health criteria were allowed to enter the compound addition procedure.
External solution containing 0.1% DMSO (vehicle) was applied to the cells first to establish the control peak current amplitude. After allowing the current to stabilize for 3 to 5 minutes, 1 μM and then 10 μM test compounds were applied. Each compound concentration was added 4 times and cells were kept in test solution until the effect of the compound reached steady state or for a maximum of 12 minutes. After addition of test compound, a positive control (1 μM Cisapride) was added and must block >95% of the current for the experiment to be considered valid. Washout in the external solution compartment was performed until the recovery of the current reached steady state.

[3] = % inhibition at 1 μM, read-out: NAv1.5*-LATE-
[4] = percent block of late INa, compound at 1 μM, 10 μM Tefluthrin, HEK293 hNav1.5, read-out: Late INa 1 μM

Row | MS Dog THalf [1] [min] | Compound | inhibition at 1 µM [2, 3] [%] | inhibition at 1 µM [2, 4] [%] | HERG* (hERG potassium channel) [%]
1 | > 395 | O=C(c1ncccn1)N1CCc2ccc(-c3ccc(C(F)(F)F)cc3)cc2C1 [IX-7, pyrimidin-2-yl(7-(4-(trifluoromethyl)phenyl)-3,4-dihydroisoquinolin-2(1H)-yl)methanone] | 46 | 46 | <10
2 | > 395 | O=C(c1cccnn1)N1CCc2ccc(-c3ccc(C(F)(F)F)cc3)cc2C1 [IX-17, Pyridazin-3-yl(7-(4-(trifluoromethyl)phenyl)-3,4-dihydroisoquinolin-2 (1H)-yl) methanone] | 39 | 39 | 76
3 | 256 | Cn1cnc(C(=O)N2CCc3ccc(-c4ccc(C(F)(F)F)cc4)cc3C2)c1 [IX-39, (1-methyl-1H-imidazol-4-yl)(7-(4-(trifluoromethyl)phenyl)-3,4-dihydroisoquinolin-2(1H)-yl)methanone] | 30 | 30 | 35
4 | 164 | O=C1c2cc(-c3ccc(OC(F)(F)F)cc3)ccc2OCN1Cc1ccccn1 [VIII-3, 3-(pyridin-2-ylmethyl)-6-(4-(trifluoromethoxy)phenyl)-2H-benzo[e][1,3]oxazin-4(3H)-one] | 58 | 58 | <10
5 | 392 | CC1Oc2ccc(-c3ccc(OC(F)(F)F)cc3)cc2C(=O)N1Cc1ncccn1 (centres unmarked) [VIII-7, 2-methyl-3-(pyrimidin-2-ylmethyl)-6-(4-(trifluoromethoxy)phenyl)-2H-benzo[e][1,3]oxazin-4(3H)-one] | 22 | 22 | <10
